No end group written: not given here.
Key:
Assay type in all cases: cell-based, human
[1] = tested on: Miltenberger Antibody Positive Panel; experiment: Reactivity of modified RBCs against the Miltenberger Antibody Positive Panel; set-up: key to score vs panel 15 TAP2 / score vs panel 4 T7202 / score vs panel 8 T5896 / score vs panel 2 T217 / score vs panel 3 T165 / score vs panel 14 TAP1 / score vs panel 10 Mia / score vs panel 11 Mur / score vs panel 12 Gam / score vs panel 6 T6025 / score vs panel 7 T8445 / score vs panel 9 MIII / score vs panel 13 BoxH / reactivity with Panel Serum #7 (T8445) / agglutination score, Panel Serum #7 (T8445): 0 or ‘−’ no agglutination; 0 or ‘−’ no agglutination; 1+ or 3=very weak agglutination; 1+ or 3=very weak agglutination; 2+ or 5=weak agglutination; 2+ or 5=weak agglutination; 3+ or 8=moderate strong agglutination; 3+ or 8=moderate strong agglutination; 4+ or 10/12=strong agglutination; 4+ or 10/12=strong agglutination; 4+ or 10/12=strong agglutination
antibody negative serums = experiment: False positive reactions of modified RBCs with antibody negative serums/plasma; set-up: key to Reaction score BioVue AHG, PAC samples 1-46, 49, 50, 52, 53 / Reaction score BioVue AHG, PAC sample 47 / Reaction score BioVue AHG, PAC sample 48 / Reaction score BioVue AHG, PAC sample 51 / agglutination score, T series serum 2 / agglutination score, T series serum 42 / agglutination score, T series serum 63 / agglutination score, T series serum 62 / agglutination score, T series serum 7 / agglutination score, T series serum 20 / agglutination score, T series serum 48 / agglutination score, T series serum 22 / agglutination score, T series serum 39 / agglutination score, T series serum 23 / agglutination score, T series serum 30 / agglutination score, T series serum 4 / agglutination score, T series serum 31 / agglutination score, T series serum 44 / agglutination score, T series serum 61 / agglutination score, T series serum 18 / agglutination score, T series serum 21 / agglutination score, T series serum 28 / agglutination score, T series serum 55 / agglutination score, false positive serum T18 / agglutination score, false positive serum T21 / agglutination score, false positive serum T28 / agglutination score, false positive serum T55 / agglutination score, false positive serum T78 / agglutination score, false positive serum T92: 0 or ‘−’ no agglutination; 0 or ‘−’ no agglutination; 1+ or 3=very weak agglutination; 1+ or 3=very weak agglutination; 2+ or 5=weak agglutination; 2+ or 5=weak agglutination; 3+ or 8=moderate strong agglutination; 3+ or 8=moderate strong agglutination; 4+ or 10/12=strong agglutination; 4+ or 10/12=strong agglutination; 4+ or 10/12=strong agglutination
[2] = tested on: TAP1 serum (Taiwan Miltenberger antibody positive sample); experiment: Anti-MUT serum (TAP1) reactivity of modified RBCs (saline and AHG); set-up: key: 0 or ‘−’ no agglutination; 0 or ‘−’ no agglutination; 1+ or 3=very weak agglutination; 1+ or 3=very weak agglutination; 2+ or 5=weak agglutination; 2+ or 5=weak agglutination; 3+ or 8=moderate strong agglutination; 3+ or 8=moderate strong agglutination; 4+ or 10/12=strong agglutination; 4+ or 10/12=strong agglutination; 4+ or 10/12=strong agglutination
[3] = tested on: sera reactive with modified RBCs; experiment: Neutralisation of reactive sera with free peptide, retested against modified RBCs (BioVue); set-up: key: 0 or ‘−’ no agglutination; 0 or ‘−’ no agglutination; 1+ or 3=very weak agglutination; 1+ or 3=very weak agglutination; 2+ or 5=weak agglutination; 2+ or 5=weak agglutination; 3+ or 8=moderate strong agglutination; 3+ or 8=moderate strong agglutination; 4+ or 10/12=strong agglutination; 4+ or 10/12=strong agglutination; 4+ or 10/12=strong agglutination; conditions: cells modified with the peptide-lipid construct M22; AHG test in BioVue
From the text: Optionally, where F is a peptide, the method includes the preliminary step of: • Adding an amount of the peptide to the sample of the serum; where the amount of the peptide is sufficient to neutralize non-specific agglutination or confirm specificity of the reactive antibody.

[4] = Australia, Melb Path, 45 tested, construct 50 μg/ml
[5] = Australia, RNSH, 500 tested, construct 50 μg/ml
[6] = Malaysia, UMMC, 749 tested, construct 50 μg/ml
[7] = Philippines, Metrop Hosp, 60 tested, construct 50 μg/ml
[8] = blood donor plasma, construct 50 μg/ml (2 hours, 37° C.)

M22: DOPE peptide-lipid construct: MUTK peptide SQTNDKHKRD, leader c, spacer CMG(2) (SQTNDKHKRDC; also: DOPE peptide-lipid construct via leader Cys, spacer CMG(2))
4.5%: % Positive, BioVue (antibody negative serums; [4])
superior sensitivity and specificity: sensitivity and specificity towards a human polyclonal antibody panel compared with sequence 1 ([1]; MUT peptides, prior art sequence 1)
0: score vs panel 2 T217 ([1]; Table 8, construct 200 μg/ml) | score vs panel 3 T165 ([1]; Table 8, construct 200 μg/ml) | score vs panel 4 T7202 ([1]; Table 8, construct 200 μg/ml) | score vs panel 7 T8445 ([1]; Table 8, construct 200 μg/ml) | score vs panel 8 T5896 ([1]; Table 8, construct 200 μg/ml) | score vs panel 9 MIII ([1]; Table 8, construct 200 μg/ml) | score vs panel 10 Mia ([1]; Table 8, construct 200 μg/ml) | score vs panel 11 Mur ([1]; Table 8, construct 200 μg/ml) | score vs panel 15 TAP2 ([1]; Table 8, construct 200 μg/ml) | Number Positive, Tube (antibody negative serums; [7]) | Reaction score BioVue AHG, PAC sample 47 (antibody negative serums; [8]) | Reaction score BioVue AHG, PAC sample 48 (antibody negative serums; [8]) | Reaction score BioVue AHG, PAC sample 51 (antibody negative serums; [8]) | Reaction score BioVue AHG, PAC samples 1-46, 49, 50, 52, 53 (antibody negative serums; [8]) | TAP 1 Serum, Saline score ([2]; construct 10 μg/ml) | TAP 1 Serum, Saline score ([2]; construct 20 μg/ml) | TAP 1 Serum, Saline score ([2]; construct 50 μg/ml) | TAP 1 Serum, Saline score ([2]; construct 100 μg/ml) | TAP 1 Serum, Saline score ([2]; construct 200 μg/ml)
10: score vs panel 6 T6025 ([1]; Table 8, construct 200 μg/ml) | TAP 1 Serum, AHG score ([2]; construct 200 μg/ml)
2.5%: % Positive, BioVue (antibody negative serums; [6])
0.4%: % Positive, BioVue (antibody negative serums; [5]) | % Positive, DiaMed (antibody negative serums; [5])
5: TAP 1 Serum, AHG score ([2]; construct 10 μg/ml)
3: score vs panel 12 Gam ([1]; Table 8, construct 200 μg/ml) | Number Positive, BioVue (antibody negative serums; Australia, CSL, 100 tested, construct 50 μg/ml, 3 h RT then 18 h 4° C.)
0%: % Positive, Tube (antibody negative serums; [7]) | % False Positives (antibody negative serums; panel of blood donor plasma samples (PAC), BioVue AHG, construct 50 μg/ml)
2: Number Positive, BioVue (antibody negative serums; [4]) | Number Positive, BioVue (antibody negative serums; [5]) | Number Positive, DiaMed (antibody negative serums; [5])
8: TAP 1 Serum, AHG score ([2]; construct 20 μg/ml) | TAP 1 Serum, AHG score ([2]; construct 50 μg/ml) | Reactivity with anti-MUT serum TAP1 ([2]; construct 50 μg/ml (2 hours, 37° C.)) | TAP 1 Serum, AHG score ([2]; construct 100 μg/ml) | Pre-neutralisation serology, PAC74 [3] | Pre-neutralisation serology, TAP1 [3]
19: Number Positive, BioVue (antibody negative serums; [6])
3.0%: % Positive, BioVue (antibody negative serums; Australia, CSL, 100 tested, construct 50 μg/ml)
